Reference: publication PMC6773697, “Antileukemic activity of novel adenosine derivatives” (Scientific Reports, 2019)

Experiments:
THP-1 cells [1] = assay: XTT cytotoxicity assay, THP-1; format: cell-based, human; conditions: for IC50: Homo sapiens, THP-1, XTT, 48 h incubation, none in the picture; for sensitivity of cells to the compound: THP-1, XTT
Procedure: (§1) The cytotoxic activity test with XTT (sodium 3′-[1-(phenylaminocarbonyl)- 3,4-tetrazolium]-bis (4-methoxy-6-nitro) benzene sulfonic acid hydrate) is a colorimetric method for determining the parameters associated with cell viability. The cytotoxicity in HL-60, THP-1, MOLT-4, and HMEC-1 cells was measured by the XTT assay. XTT is reduced to formazan by the mitochondrial respiratory chain oxidoreductase, which is active only in living cells. The formed crystals of formazan are dissolved directly in the medium. The amount of product is proportional to the number of live cells.
(§2) The IC50 parameter was determined by dividing the mean absorbance values of the drug-treated samples by those of control cells and defined as the drug concentration causing a 50% reduction of cell viability relative to the control. It was calculated using the “Ed50v10(1)” computer application. Cells were plated in 96-well plates at a density of 15 × 10^3 cells in 100 μL culture medium. Drugs were then added at a concentration range of 10 nM–10,000 nM to obtain a final volume of the mixture of 150 μL. Some cells were preincubated with an ATR kinase inhibitor (VE-821) for 1 h at 37 °C before adding the tested compounds. In this case drugs were added at a concentration range of 10 nM–300 nM. For the XTT assay, after 48 h of incubation, the plates were centrifuged at 1,500 rpm for 10 min at 4 °C, the culture medium was removed, and the cells were suspended in 100 mm^3 of HBSS (Hank’s Buffered Salt Solution) containing 140 mM NaCl, 5 mM KCl, 0.8 mM MgCl2, 1.8 mM CaCl2, 1 mM Na2HPO4, 10 mM HEPES (N- (2-hydroxyethyl) -piperazine-N′- (2-ethanesulfonic acid), and 1% glucose at pH 7.4. Then, 50 μL of XTT solution (in PBS) was added to a final concentration of […]. In addition, PMS (phenazine methosulphate) - methyl dibenzo-N-methylpyrazine sulphate (0.383 mg/cm^3) was used, which was combined with XTT solution at a ratio of 1:50. After 4 h of incubation with XTT, absorbance was measured at a wavelength λ = 450 nm and reference wavelength λ = 690 nm with a microplate reader (BioTek, Winooski, VT, USA).

HL-60 cells [2] = assay: XTT cytotoxicity assay, HL-60; format: cell-based; conditions: Homo sapiens, 48 h incubation, none in the picture
Procedure: as §1, §2

dCK in THP-1 cells = assay: Deoxycytidine kinase activity, THP-1; format: cell-based, human; conditions: THP-1, 24 h incubation
Procedure: Deoxycytidine kinase activity was measured in accordance with the manufacturer’s protocol. The cells, at final concentration were plated at 1 × 10^6 cells per 24-well plates and cultured with the tested compounds for 24 h. Some cells were preincubated with an ATR kinase inhibitor (VE-821) for 1 h at 37 °C before adding the tested compounds. After drug treatment, the cells were washed with PBS and resuspended in an ice-cold cytosol extraction buffer containing 1 mM phenylmethylsulfonyl fluoride (PMSF) and a protease inhibitor cocktail. The cell lysate was centrifuged at 10,000 × g for 30 min at 4 °C. The protein concentration was determined using the Bradford method. The supernatant (cytosolic fraction) was collected and stored at −80 °C. The clarified cytoplasm extracts, dCK standards, and blank control were added to the appropriate microtiter plate wells with a biotin-conjugated polyclonal antibody prepared specifically for dCK. Avidin conjugated to horseradish peroxidase (HRP) was added to each microplate well and incubated. Then, a TMB substrate solution was added to the plate. […] The enzyme-substrate reaction was terminated by addition of a sulfuric acid solution. The color change was measured spectrophotometrically at a wavelength of 450 nm using a microplate reader (BioTek).

[3] = test system: leukemic cells (HL-60, MOLT-4, THP-1); assay: XTT cytotoxicity assay, leukemic cells overall; format: cell-based, human; conditions: XTT, leukemic cell lines
Procedure: as §1, §2

HL-60 cells [4] = assay: Comet assay with proteinase K post-treatment (DNA-protein cross-links), HL-60; format: cell-based, human; conditions: for DNA damage after proteinase K: HL-60, 24 h
Procedure: (§3) Single cell gel electrophoresis (comet assay) was used to detect alkali labile sites, single and double DNA strand breaks, and cross-links induced by genotoxic agents. After electrophoresis and gel staining with 4,6-diamidino-2-phenylindole (DAPI), the released DNA was visible under a fluorescence microscope as a characteristic comet tail. The cells were plated on 24-well plates (20,000 cells/mL) and treated with CLA, CLA-FMOR, CLA-FPIP, or CLA-FPIR at the indicated concentrations for 2, 24, and 48 h at 37 °C. Some cells were preincubated with an ATR kinase inhibitor (VE-821) for 1 h at 37 °C before adding the tested compounds. Next, cells were collected into Eppendorf tubes and rinsed with PBS. Then, cells were suspended in 0.75% low melting point (LMP) agarose dissolved in PBS (pH 7.4) and placed on microscope slides precoated with 0.5% normal melting point (NMP) agarose. Subsequently, the slides were treated with a cooled lysis buffer (2.5 M NaCl, 100 mM EDTA, 10 mM Tris, 1% Triton X-100, pH 9.0) for 1–24 h at 4 °C. Then, slides were placed in developing buffer (300 mM NaOH, 1 mM EDTA) for 20 min. Electrophoresis was performed in […] (30 mM NaOH, 1 mM EDTA) at 29 V and 30 mA for 20 min. The samples were stained with DAPI ([…]). The slides were stored in a wet chamber at 4 °C and analyzed under a fluorescence microscope. Fifty randomly selected cells from each slide were measured using image analysis (Nikon, Japan) attached to a COHU 4910 video camera, which was equipped with a UV-1 filter block consisting of an excitation filter (359 nm) and a barrier filter (461 nm) connected to the image analysis system Lucia-Comet v. 4.51 (Czech Republic)[41]. In the samples preincubated with VE-821, the level of DNA damage associated with the ATR kinase was determined.
Because cross-links can be undetectable in the alkaline comet assay, a variant of this method including post-treatment with proteinase K (Cat no: P2308) was used. Proteinase K digests peptide bonds, releasing the cross-linked DNA […] the DNA-protein complexes without altering the structure of the DNA-DNA complexes to distinguish them. After lysis, the slides were washed three times in TE buffer (10 mM Tris, pH 10, 1 mM EDTA). The cells were treated with aliquots of proteinase K (60 µL per slide; 1 mg/mL TE buffer) for 1 h at 37 °C in a wet chamber. Further steps of the comet assay were performed as described above.

THP-1 cells [5] = assay: Comet assay with proteinase K post-treatment (DNA-protein cross-links), THP-1; format: cell-based, human
Procedure: as §3
Because cross-links can be undetectable in the alkaline comet assay, a variant of this method including post-treatment with proteinase K (Cat no: P2308) was used. […]

SMILES | IC50 (THP-1 cells [1]) [nM] | sensitivity of cells to the compound (THP-1 cells [1]) | IC50 (HL-60 cells [2]) [nM] | dCK activity (dCK in THP-1 cells) | cytotoxicity (in words) [3] | DNA damage after proteinase K (HL-60 cells [4]) | DNA damage in the tail after proteinase K (THP-1 cells [5]; THP-1, 24 h) | DNA-protein cross-links after proteinase K (HL-60 cells [4]; HL-60, starting at 2 h of incubation) | DNA damage in the tail after proteinase K (THP-1 cells [5]; THP-1, 2–48 h)
OC[C@H]1O[C@@H](n2cnc3c(N=CN4CCCC4)nc(Cl)nc32)C[C@@H]1O [CLA-FPIR, [6-deamino-6-(N′, N′-l′, 4′-tetramethyleneformamidino)] cladribine] | 36 | highest sensitivity | 135 | highest dCK activity | high cytotoxic activity | increased the DNA damage | increased | – | –
OC[C@H]1O[C@@H](n2cnc3c(N=CN4CCOCC4)nc(Cl)nc32)C[C@@H]1O [CLA-FMOR, [6-deamino-6-(N′, N′-3′-oxa-1′, 5′-pentamethyleneformamidine)] cladribine] | 41 | highest sensitivity | 122 | highest dCK activity | high cytotoxic activity | increased the DNA damage | – | increased the level of cross-links | increased
